# Laboratory results: patent US20220409643A1, “ROR Gamma T Inhibitors and Topical Uses Thereof” (Dermira, inc., priority 2019, published 2022)
# Test system: IL17A
# Assay: skin Resident Immune Cell Assay (sRICA), Th17 model, IL17A protein in media
# Assay type: cell-based
# Conditions: 100 uM solution in 1% DMSO/OD applied topically to human skin; media collected 24 hours after Th17 activation
# Outline: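 Human surgical skin, dermatomed to 750μm, 8 mm biopsies cultured air-liquid in transwells; RORγt inhibitors applied topically at 100 uM in 1% DMSO/OD, up to 24 h before Th17 activation by cytokine/antibody cocktail. IL17A measured in media 24 h post-activation by SiMoA, expressed as % of activated untreated skin.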
row,SMILES,inhibition at 100 µM
1,"COCc1ccc([C@@H](NC(=O)Cc2cc(O)no2)C(=O)Nc2ccc(C(C)(C)C)c(F)c2)cc1 [(2R)-N-(4-tert-butyl-3-fluorophenyl)-2-(((3-hydroxy-1,2-oxazol-5-yl)acetyl)amino)-2-(4-(methoxymethyl)phenyl)acetamide]",68.1%
2,"COc1ccc2c(n1)CCN(C(=O)Cc1cc(O)no1)[C@H]2C(=O)Nc1ccc(C(C)(C)C)c(F)c1 [(5R)-N-(4-tert-butyl-3-fluorophenyl)-6-((3-hydroxy-1,2-oxazol-5-yl)acetyl)-2-methoxy-5,6,7,8-tetrahydro-1,6-naphthyridine-5-carboxamide]",69.5%
3,"COCc1ccc2c(c1)CCN(C(=O)c1cc(O)no1)[C@H]2C(=O)Nc1cc(F)c2c(c1)CCC2(C)C [(1R)-N-(7-fluoro-1,1-dimethyl-2,3-dihydro-1H-inden-5-yl)-2-((3-hydroxy-1,2-oxazol-5-yl)carbonyl)-6-(methoxymethyl)-1,2,3,4-tetrahydroisoquinoline-1-carboxamide]",59.1%

# Same assay, conditions: Homo sapiens, 24 h, 100 uM solution in 1% DMSO/OD applied topically to human skin; media collected 24 hours after Th17 activation
row,SMILES,inhibition at 100 µM
1,COc1ccc([C@@H](NC(=O)N2CC[C@@H](O)C2)C(=O)Nc2ccc([Si](C)(C)C)c(F)c2)cc1 [(3R)-N-((1R)-2-((3-fluoro-4-(trimethylsilyl)phenyl)amino)-1-(4-methoxyphenyl)-2-oxoethyl)-3-hydroxypyrrolidine-1-carboxamide],46.9%
2,COc1ccc([C@H](C(=O)Nc2ccc([Si](C)(C)C)c(F)c2)N(C)C(=O)c2cc(O)no2)cc1,76.9%
3,"COCc1ccc2c(c1)CCN(C(=O)CCCC(=O)O)[C@H]2C(=O)Nc1ccc([Si](C)(C)C)c(F)c1 [5-((1R)-1-((3-fluoro-4-(trimethylsilyl)phenyl)carbamoyl)-6-(methoxymethyl)-3,4-dihydroisoquinolin-2(1H)-yl)-5-oxopentanoic acid]",51.1%
4,"COc1ccc2c(c1)CCN(C(=O)Cc1cc(O)no1)[C@H]2C(=O)Nc1cc(F)c([Si](C)(C)C)c(F)c1 [(1R)-N-(3,5-difluoro-4-(trimethylsilyl)phenyl)-2-((3-hydroxy-1,2-oxazol-5-yl)acetyl)-6-methoxy-1,2,3,4-tetrahydroisoquinoline-1-carboxamide]",49.2%
5,"COc1ccc([C@H](C(=O)Nc2cc(F)c([Si](C)(C)C)cc2F)N(C)C(=O)c2cc(O)no2)cc1 [N-((1R)-2-((2,5-difluoro-4-(trimethylsilyl)phenyl)amino)-1-(4-methoxyphenyl)-2-oxoethyl)-3-hydroxy-N-methyl-1,2-oxazole-5-carboxamide]",18.2%
6,"COc1ccc2c(n1)CCN(C(=O)Cc1cc(O)no1)[C@H]2C(=O)Nc1ccc([Si](C)(C)C)c(F)c1 [(5R)-N-(3-fluoro-4-(trimethylsilyl)phenyl)-6-((3-hydroxy-1,2-oxazol-5-yl)acetyl)-2-methoxy-5,6,7,8-tetrahydro-1,6-naphthyridine-5-carboxamide]",22.2%
7,"COc1ccc2c(c1)CCN(C(=O)CCCC(=O)O)[C@H]2C(=O)Nc1cc(F)c([Si](C)(C)C)c(F)c1 [5-((1R)-1-((3,5-difluoro-4-(trimethylsilyl)phenyl)carbamoyl)-6-methoxy-3,4-dihydroisoquinolin-2(1H)-yl)-5-oxopentanoic acid]",76.6%
8,"COCc1ccc2c(n1)CCN(C(=O)c1cc(O)no1)[C@H]2C(=O)Nc1cc(F)c([Si](C)(C)C)c(F)c1 [(5R)-N-(3,5-difluoro-4-(trimethylsilyl)phenyl)-6-((3-hydroxy-1,2-oxazol-5-yl)carbonyl)-2-(methoxymethyl)-5,6,7,8-tetrahydro-1,6-naphthyridine-5-carboxamide]",-15.5%
9,"CC[Si](C)(C)c1c(F)cc(NC(=O)[C@H]2c3ccc(COC)nc3CCN2C(=O)c2cc(O)no2)cc1F [(5R)-N-(4-(ethyl(dimethyl)silyl)-3,5-difluorophenyl)-6-((3-hydroxy-1,2-oxazol-5-yl)carbonyl)-2-(methoxymethyl)-5,6,7,8-tetrahydro-1,6-naphthyridine-5-carboxamide]",48.5%
10,COCc1ccc([C@@H](NC(=O)Cn2ccc(=O)cc2)C(=O)Nc2ccc([Si](C)(C)C)c(F)c2)cc1,78.4%
